Laboratory results reported in patent publication US11661403B2, “Oxadiazole compounds” (Vivace Therapeutics, Inc., priority 2018, dated 2023).
Read-outs that look alike come from different tables or passages of the source.

System: 8XTBD luciferase reporter (YAP) in HEK293T cells
Assay: YAP Reporter Assay
Type: cell-based
Conditions: Homo sapiens, HEK-293T, 24-hr incubation, top concentration 3 μM, read-out: Firefly Luciferase IC50
[1] = HEK293T cells stably transfected with 8XTBD luciferase reporter and pRLTK

Row | Compound | IC50 [1] [nM] | IC50 ([…]) [nM]
1 | CCOC(=O)Cc1nnc(-c2ccccc2Nc2ccc(C(F)(F)F)cc2)o1 [Compound 1, ethyl 2-(5-(2-((4-(trifluoromethyl)phenyl)amino)phenyl)-1,3,4-oxadiazol-2-yl) acetate] | 100 to 1000 | –
2 | OCCc1nnc(-c2ccccc2Nc2ccc(C(F)(F)F)cc2)o1 [Compound 2, 2-(5-(2-((4-(trifluoromethyl)phenyl)amino)phenyl)-1,3,4-oxadiazol-2-yl)ethan-1-ol] | < 100 | –
3 | CCOC(=O)c1nnc(-c2ccccc2Nc2ccc(C(F)(F)F)cc2)o1 [Compound 3, ethyl 5-(2-((4-(trifluoromethyl)phenyl)amino)phenyl)-1,3,4-oxadiazole-2-carboxylate] | < 100 | –
4 | Nc1nnc(-c2ccccc2Nc2ccc(C(F)(F)F)cc2)o1 [Compound 4, 5-(2-((4-(trifluoromethyl)phenyl)amino)phenyl)-1,3,4-oxadiazol-2-amine] | 100 to 1000 | –
5 | OCc1nnc(-c2ccccc2Nc2ccc(C(F)(F)F)cc2)o1 [Compound 5, (5-(2-((4-(trifluoromethyl)phenyl)amino)phenyl)-1,3,4-oxadiazol-2-yl)methanol] | < 100 | –
6 | CN(C)c1nnc(-c2ccccc2Nc2ccc(C(F)(F)F)cc2)o1 [Compound 6, N,N-dimethyl-5-(2-((4-(trifluoromethyl)phenyl)amino)phenyl)-1,3,4-oxadiazol-2-amine] | 1000 to 5000 | –
7 | COC(=O)c1nnc(-c2ccccc2Nc2ccc(C(F)(F)F)cc2)o1 [Compound 8, methyl 5-(2-((4-(trifluoromethyl)phenyl)amino)phenyl)-1,3,4-oxadiazole-2-carboxylate] | 100 to 1000 | –
8 | CCOC(=O)CNc1nnc(-c2ccccc2Nc2ccc(C(F)(F)F)cc2)o1 [Compound 9, ethyl (5-(2-((4-(trifluoromethyl)phenyl)amino)phenyl)-1,3,4-oxadiazol-2-yl)glycinate] | 1000 to 5000 | –
9 | OCCNc1nnc(-c2ccccc2Nc2ccc(C(F)(F)F)cc2)o1 [Compound 10, 2-((5-(2-((4-(trifluoromethyl)phenyl)amino)phenyl)-1,3,4-oxadiazol-2-yl)amino)ethan-1-ol] | 100 to 1000 | –
10 | CCOC(=O)CN(C)c1nnc(-c2ccccc2Nc2ccc(C(F)(F)F)cc2)o1 [Compound 11, ethyl N-methyl-N-(5-(2-((4-(trifluoromethyl)phenyl)amino)phenyl)-1,3,4-oxadiazol-2-yl)glycinate] | 100 to 1000 | –
11 | CNc1nnc(-c2ccccc2Nc2ccc(C(F)(F)F)cc2)o1 [Compound 12, N-methyl-5-(2-((4-(trifluoromethyl)phenyl)amino)phenyl)-1,3,4-oxadiazol-2-amine] | 100 to 1000 | –
12 | O=C1NCC(c2nnc(-c3ccccc3Nc3ccc(C(F)(F)F)cc3)o2)O1 (centres unmarked) [Compound 13, 5-(5-(2-((4-(trifluoromethyl)phenyl)amino)phenyl)-1,3,4-oxadiazol-2-yl)oxazolidin-2-one] | 100 to 1000 | –
13 | O=C(NO)c1nnc(-c2ccccc2Nc2ccc(C(F)(F)F)cc2)o1 [Compound 14, N-hydroxy-5-(2-((4-(trifluoromethyl)phenyl)amino)phenyl)-1,3,4-oxadiazole-2-carboxamide] | < 100 | –
14 | NC(=O)c1nnc(-c2ccccc2Nc2ccc(C(F)(F)F)cc2)o1 [Compound 15, 5-(2-((4-(trifluoromethyl)phenyl)amino)phenyl)-1,3,4-oxadiazole-2-carboxamide] | < 100 | –
15 | Cc1ccc(S(=O)(=O)N2C(=O)OCC2c2nnc(-c3ccccc3Nc3ccc(C(F)(F)F)cc3)o2)cc1 (centres unmarked) [Compound 16, 3-tosyl-4-(5-(2-((4-(trifluoromethyl)phenyl)amino)phenyl)-1,3,4-oxadiazol-2-yl)oxazolidin-2-one] | 100 to 1000 | –
16 | O=C1NC(c2nnc(-c3ccccc3Nc3ccc(C(F)(F)F)cc3)o2)CO1 (centres unmarked) [Compound 17, 4-(5-(2-((4-(trifluoromethyl)phenyl)amino)phenyl)-1,3,4-oxadiazol-2-yl)oxazolidin-2-one] | < 100 | –
17 | CN(CCO)c1nnc(-c2ccccc2Nc2ccc(C(F)(F)F)cc2)o1 [Compound 19, 2-(methyl(5-(2-((4-(trifluoromethyl)phenyl)amino)phenyl)-1,3,4-oxadiazol-2-yl)amino)ethan-1-ol] | 100 to 1000 | –
18 | FC(F)(F)c1ccc(Nc2ccccc2-c2nnco2)cc1 [Compound 20, 2-(1,3,4-oxadiazol-2-yl)-N-[4-(trifluoromethyl)phenyl]aniline] | 100 to 1000 | –
19 | N#Cc1nnc(-c2ccccc2Nc2ccc(C(F)(F)F)cc2)o1 [Compound 22, 5-[2-[4-(trifluoromethyl)anilino]phenyl]-1,3,4-oxadiazole-2-carbonitrile] | < 100 | –
20 | NC(=O)CNc1nnc(-c2ccccc2Nc2ccc(C(F)(F)F)cc2)o1 [Compound 24, 2-((5-(2-((4-(trifluoromethyl)phenyl)amino)phenyl)-1,3,4-oxadiazol-2-yl)amino)acetamide] | 100 to 1000 | –
21 | OCC(O)c1nnc(-c2ccccc2Nc2ccc(C(F)(F)F)cc2)o1 (centres unmarked) [Compound 25, 1-[5-[2-[4-(trifluoromethyl)anilino]phenyl]-1,3,4-oxadiazol-2-yl]ethane-1,2-diol] | < 100 | –

Row | Compound | IC50 [1] [nM] | IC50 ([…]) [nM]
22 | CC(C)(C)OC(=O)N1C(=O)OCC1c1nnc(-c2ccccc2Nc2ccc(C(F)(F)F)cc2)o1 (centres unmarked) [Compound 26] | < 100 | –
23 | NCc1nnc(-c2ccccc2Nc2ccc(C(F)(F)F)cc2)o1 [Compound 28, 2-[5-(aminomethyl)-1,3,4-oxadiazol-2-yl]-N-[4-(trifluoromethyl)phenyl]aniline] | 100 to 1000 | –
24 | O=C1OCC(c2nnc(-c3ccccc3Nc3ccc(C(F)(F)F)cc3)o2)O1 (centres unmarked) [Compound 29, 4-[5-[2-[4-(trifluoromethyl)anilino]phenyl]-1,3,4-oxadiazol-2-yl]-1,3-dioxolan-2-one] | < 100 | –
25 | NC(CO)c1nnc(-c2ccccc2Nc2ccc(C(F)(F)F)cc2)o1 (centres unmarked) [Compound 30, 2-amino-2-(5-(2-((4-(trifluoromethyl)phenyl)amino)phenyl)-1,3,4-oxadiazol-2-yl)ethanol] | 100 to 1000 | –
26 | [N-]=[N+]=NCc1nnc(-c2ccccc2Nc2ccc(C(F)(F)F)cc2)o1 [Compound 31, 2-[5-(azidomethyl)-1,3,4-oxadiazol-2-yl]-N-[4-(trifluoromethyl)phenyl]aniline] | 100 to 1000 | –
27 | CS(=O)(=O)N(CCO)c1nnc(-c2ccccc2Nc2ccc(C(F)(F)F)cc2)o1 [Compound 32, N-(2-hydroxyethyl)-N-(5-(2-((4-(trifluoromethyl)phenyl)amino)phenyl)-1,3,4-oxadiazol-2-yl)methanesulfonamide] | 100 to 1000 | –
28 | O=C1NCCN1c1nnc(-c2ccccc2Nc2ccc(C(F)(F)F)cc2)o1 [Compound 34, 1-(5-(2-((4-(trifluoromethyl)phenyl)amino)phenyl)-1,3,4-oxadiazol-2-yl)imidazolidin-2-one] | 100 to 1000 | –
29 | Cc1ocnc1-c1nnc(-c2ccccc2Nc2ccc(C(F)(F)F)cc2)o1 [Compound 35, 2-(5-(5-methyloxazol-4-yl)-1,3,4-oxadiazol-2-yl)-N-(4-(trifluoromethyl)phenyl) aniline] | 100 to 1000 | –
30 | FC(F)(F)c1ccc(Nc2ccccc2-c2nnc(-c3cocn3)o2)cc1 [Compound 36, 2-(5-(oxazol-4-yl)-1,3,4-oxadiazol-2-yl)-N-(4-(trifluoromethyl)phenyl)aniline] | 100 to 1000 | –
31 | FC(F)(F)c1ccc(Nc2ccccc2-c2nnc(-c3cnco3)o2)cc1 [Compound 37, 2-(5-(oxazol-5-yl)-1,3,4-oxadiazol-2-yl)-N-(4-(trifluoromethyl)phenyl)aniline] | 100 to 1000 | –
32 | CS(=O)(=O)Nc1nnc(-c2ccccc2Nc2ccc(C(F)(F)F)cc2)o1 [Compound 38, N-(5-(2-((4-(trifluoromethyl)phenyl)amino)phenyl)-1,3,4-oxadiazol-2-yl)methanesulfonamide] | – | 100 to 1000
33 | Cc1oncc1-c1nnc(-c2ccccc2Nc2ccc(C(F)(F)F)cc2)o1 [Compound 40, 2-(5-(5-methylisoxazol-4-yl)-1,3,4-oxadiazol-2-yl)-N-(4-(trifluoromethyl)phenyl) aniline] | 100 to 1000 | –
34 | CC(O)c1nnc(-c2ccccc2Nc2ccc(C(F)(F)F)cc2)o1 (centres unmarked) [Compound 41, 1-(5-(2-((4-(trifluoromethyl)phenyl)amino)phenyl)-1,3,4-oxadiazol-2-yl)ethanol] | < 100 | –
35 | CC(C)(O)c1nnc(-c2ccccc2Nc2ccc(C(F)(F)F)cc2)o1 [Compound 42, 2-(5-(2-((4-(trifluoromethyl)phenyl)amino)phenyl)-1,3,4-oxadiazol-2-yl)propan-2-ol] | < 100 | –
36 | OC1(c2nnc(-c3ccccc3Nc3ccc(C(F)(F)F)cc3)o2)CC1 [Compound 44, 1-(5-(2-((4-(trifluoromethyl)phenyl)amino)phenyl)-1,3,4-oxadiazol-2-yl)cyclopropanol] | < 100 | –
37 | CC(C)(CO)c1nnc(-c2ccccc2Nc2ccc(C(F)(F)F)cc2)o1 [Compound 45, 2-methyl-2-(5-(2-((4-(trifluoromethyl)phenyl)amino)phenyl)-1,3,4-oxadiazol-2-yl)propan-1-ol] | < 100 | –
38 | Cc1ccc(S(=O)(=O)OC(c2nnc(-c3ccccc3Nc3ccc(C(F)(F)F)cc3)o2)C(F)(F)F)cc1 (centres unmarked) [Compound 46, 2,2,2-trifluoro-1-(5-(2-((4-(trifluoromethyl)phenyl)amino)phenyl)-1,3,4-oxadiazol-2-yl)ethyl 4-methylbenzenesulfonate] | 100 to 1000 | –
39 | OCC1(c2nnc(-c3ccccc3Nc3ccc(C(F)(F)F)cc3)o2)CC1 [Compound 47, (1-(5-(2-((4-(trifluoromethyl)phenyl)amino)phenyl)-1,3,4-oxadiazol-2-yl)cyclopropyl)methanol] | < 100 | –
40 | FC(F)(F)c1ccc(Nc2ccccc2-c2nnc(-c3nn[nH]n3)o2)cc1 [Compound 48, 2-[5-(2H-tetrazol-5-yl)-1,3,4-oxadiazol-2-yl]-N-[4-(trifluoromethyl)phenyl]aniline] | 1000 to 5000 | –
41 | OC(c1nnc(-c2ccccc2Nc2ccc(C(F)(F)F)cc2)o1)C1CC1 (centres unmarked) [Compound 49, cyclopropyl(5-(2-((4-(trifluoromethyl)phenyl)amino)phenyl)-1,3,4-oxadiazol-2-yl)methanol] | – | < 100
